Measured values published in US9302999B2, “Substituted triazoles as herbicides” (E. I. DU PONT DE NEMOURS AND COMPANY, priority 2012, dated 2016).
Where two headings read alike, the source gives them in different places.

Key:
Type in all cases: in vivo
[1] = system: galium (catchweed bedstraw, Galium aparine); test: Test C pre-/postemergence: galium
Excerpt: (§1) Seeds of plant species selected from blackgrass (Alopecurus myosuroides), bromegrass, downy (downy bromegrass, Bromus tectorum), foxtail, green (green foxtail, Setaria viridis), ryegrass, Italian (Italian ryegrass, Lolium multiflorum), winter wheat (Triticum aestivum), wild oat (Avena fatua), galium (catchweed bedstraw, Galium aparine), bermudagrass (Cynodon dactylon), surinam grass (Brachiaria decumbens), cocklebur (common cocklebur, Xanthium strumarium), corn (Zea mays), large crabgrass (Digitaria sanguinalis), woolly cupgrass (Eriochloa villosa), foxtail, giant (giant foxtail, Setaria faberii), goosegrass (Eleusine indica), johnsongrass (Sorghum halepense), kochia (Kochia scoparia), lambsquarters (Chenopodium album), morningglory (Ipomoea coccinea), nightshade (eastern black nightshade, Solanum ptycanthum), nutsedge, yellow (yellow nutsedge, Cyperus esculentus), pigweed (Amaranthus retroflexus), ragweed (common ragweed, Ambrosia elation), soybean (Glycine max), common (oilseed) sunflower (Helianthus annuus), Russian thistle (Salsola kali) and velvetleaf (Abutilon theophrasti) were planted into a blend of loam soil and sand and treated preemergence with test chemicals formulated in a non-phytotoxic solvent mixture which included a surfactant.
(§2) At the same time, plants selected from these crop and weed species and also barley (winter barley, Hordeum vulgare), canarygrass (Phalaris minor), chickweed (common chickweed, Stellaria media) windgrass (Apera spica-venti) and deadnettle (henbit deadnettle, Lamium amplexicaule) were planted in pots containing Redi-Earth® planting medium (Scotts Company, 14111 Scottslawn Road, Marysville, Ohio 43041) comprising spaghnum peat moss, vermiculite, wetting agent and starter nutrients and treated with postemergence applications of test chemicals formulated in the same manner. Plants ranged in height from 2 to 18 cm (1- to 4-leaf stage) for postemergence treatments.
(§3) Treated plants and controls were maintained in a greenhouse for 13 to 15 days, after which time all species were compared to controls and visually evaluated. Plant response ratings, summarized in Table C, are based on a scale of 0 to 100 where 0 is no effect and 100 is complete control. A dash (-) response means no test result.

[2] = system: johnsongrass (Sorghum halepense); test: Test C pre-/postemergence: johnsongrass
Excerpt: as §1, §2, §3

rice (Oryza sativa) = test: Test B flooded paddy: rice; conditions: Flood, applied to paddy water at 2-leaf stage, visually evaluated after 13 to 15 days
How it was run: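 Greenhouse assay lasting 13 to 15 days. Treatment was into water flooding pots 3 cm deep, at the 2-leaf stage, with that level sustained afterwards. Scores compare treated with control plants visually, 100 denoting complete control and 0 no effect; a dash marks no test result.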

[3] = system: field violet (Viola arvensis); test: Test D pre-/postemergence: field violet
Excerpt: (§4) Seeds of plant species selected from bluegrass (annual bluegrass, Poa annua), blackgrass (Alopecurus myosuroides), canarygrass (Phalaris minor), chickweed (common chickweed, Stellaria media), galium (catchweed bedstraw, Galium aparine), bromegrass, downy (downy bromegrass, Bromus tectorum), field poppy (Papaver rhoeas), field violet (Viola arvensis), foxtail, green (green foxtail, Setaria viridis), deadnettle (henbit deadnettle, Lamium amplexicaule), ryegrass, Italian (Italian ryegrass, Lolium multiflorum), kochia (Kochia scoparia), lambsquarters (Chenopodium album), oilseed rape (Brassica napus), pigweed (Amaranthus retroflexus), Russian thistle (Salsola iberica), chamomile (scentless chamomile, Matricaria inodora), speedwell (bird's-eye speedwell, Veronica persica), barley, spring (spring barley, Hordeum vulgare), wheat, spring (spring wheat, Triticum aestivum), buckwheat, wild (wild buckwheat, Polygonum convolvulus), mustard, wild (wild mustard, Sinapis arvensis), oat, wild (wild oat, Avena fatua), radish, wild (wild radish, Raphanus raphanistrum), windgrass (Apera spica-venti), barley, winter (winter barley, Hordeum vulgare), and wheat, winter (winter wheat, Triticum aestivum) were planted into a silt loam soil and treated preemergence with test chemicals formulated in a non-phytotoxic solvent mixture which included a surfactant. At the same time, these same crop and weed species were planted in pots containing the planting medium comprising spaghnum peat moss, vermiculite, wetting agent and starter nutrients and treated with postemergence applications of the test chemicals formulated in the same manner. Plants ranged in height from 2 to 18 cm (1- to 4-leaf stage).
as §3, with “controlled growth environment” for “greenhouse”, “14” for “13”, “21 days” for “15 days,”, “D,” for “C,”

[4] = system: pigweed (Amaranthus retroflexus); test: Test D pre-/postemergence: pigweed
Excerpt: as §4
as §3, with “controlled growth environment” for “greenhouse”, “14” for “13”, “21 days” for “15 days,”, “D,” for “C,”

[5] = system: sedge, umbrella (small-flower umbrella sedge, Cyperus difformis); test: Test C flooded paddy test: sedge, umbrella; conditions: Cyperus difformis, scale 0 to 100 (0 no effect, 100 complete control), read-out: Plant response rating, Sedge, Umbrella; for pest or weed control at 62 g/ha: 62 g ai/ha; for pest or weed control at 125 g/ha: 125 g ai/ha; for pest or weed control at 250 g/ha: 250 g ai/ha; for pest or weed control at 31 g/ha: 31 g ai/ha
How it was run: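 Rating: visual, 0–100 (100 = complete control), versus untreated controls after 13 to 15 greenhouse days. Treatment went into paddy water held at 3 cm over the soil, on plants grown to two leaves.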

[6] = Postemergence, 31 g ai/ha, scale 0 to 100 (0 no effect, 100 complete control)
[7] = Postemergence, 62 g ai/ha, scale 0 to 100 (0 no effect, 100 complete control)
[8] = Postemergence, 125 g ai/ha, scale 0 to 100, 0 no effect, 100 complete control
[9] = Postemergence, 250 g ai/ha, scale 0 to 100
[10] = Preemergence, 31 g ai/ha, scale of 0 to 100, 0 is no effect, 100 is complete control
[11] = Preemergence, 125 g ai/ha, scale 0 to 100, 0 no effect, 100 complete control
[12] = Preemergence, 250 g ai/ha, scale 0 to 100, 0 no effect, 100 complete control
[13] = Preemergence, 62 g ai/ha, scale of 0 to 100, 0 is no effect, 100 is complete control
[14] = Postemergence, 250 g ai/ha, scale 0 to 100 (0 no effect, 100 complete control)
[15] = Preemergence, 31 g ai/ha, scale 0 (no effect) to 100 (complete control)
[16] = Postemergence, 16 g ai/ha, scale 0 to 100
[17] = Preemergence, 16 g ai/ha, scale 0 to 100 (0 no effect, 100 complete control)
[18] = Preemergence, 31 g ai/ha, scale 0 to 100 (0 no effect, 100 complete control)
[19] = Preemergence, 62 g ai/ha, scale 0 to 100
[20] = Preemergence, 125 g ai/ha, scale 0 to 100
[21] = Flood (flooded paddy test), visual rating after 13 to 15 days
[22] = Preemergence, 16 g ai/ha, scale 0 (no effect) to 100 (complete control)

SMILES | Plant response rating, Galium [1, 6] | Plant response rating, Galium [1, 7] | Plant response rating, Galium [1, 8] | Plant response rating, Galium [1, 9] | Plant response rating, Galium [1, 10] | Plant response rating, Galium [1, 11] | Plant response rating, Galium [1, 12] | Plant response rating, Johnsongrass [2, 6] | Plant response rating, Johnsongrass [2, 7] | Plant response rating, Johnsongrass [2, 8] | Plant response rating, Johnsongrass [2, 9] | Plant response rating, Johnsongrass [2, 10] | Plant response rating, Johnsongrass [2, 13] | Plant response rating, Johnsongrass [2, 11] | Plant response rating, Johnsongrass [2, 12] | Plant response rating, Rice (0 to 100 scale, 0 is no effect, 100 is complete control) (rice (Oryza sativa); 125 g ai/ha) | Plant response rating, Galium [1, 15] | Plant response rating, Galium [1, 13] | Plant response rating, Johnsongrass [2, 15] | Plant response rating, Rice (0 to 100 scale, 0 is no effect, 100 is complete control) (rice (Oryza sativa); 250 g ai/ha) | other results
Cc1nn(-c2ccc(C(F)(F)F)c(F)c2)nc1Cc1ccnc(C(F)(F)F)c1 [Compound 162] | 75 | 75 | 80 | 95 | 100 | 100 | 100 | 45 | 80 | 80 | 98 | 35 | 60 | 98 | 98 | 25 | – | – | – | – | –
CCCc1nn(-c2ccc(C(F)(F)F)c(F)c2)nc1Oc1ccnc(C(F)(F)F)c1 [Compound 185] | 70 | 80 | 90 | – | – | 100 | 100 | 10 | 30 | 65 | – | – | 70 | 80 | 100 | – | 80 | 100 | 25 | 65 | Plant response rating, Galium [1, 14]: 90; Plant response rating, Johnsongrass [2, 14]: 75
Cc1nn(-c2ccc(F)c(C(F)(F)F)c2)nc1Oc1ccnc(C(F)(F)F)c1 [Compound 147] | – | – | – | – | 100 | 100 | 100 | – | – | – | – | 40 | 55 | 95 | 98 | – | – | 100 | – | 50 | Plant response rating: Field Violet [3, 6]: 95; Plant response rating: Field Violet [3, 7]: 100; Plant response rating: Field Violet [3, 8]: 90; Plant response rating, Field Violet [3, 16]: 95; Plant response rating, Field Violet [3, 17]: 75; Plant response rating, Field Violet [3, 18]: 100; Plant response rating, Field Violet [3, 19]: 95; Plant response rating, Field Violet [3, 20]: 100; Plant response rating: Pigweed [4, 6]: 70; Plant response rating: Pigweed [4, 7]: 85; Plant response rating: Pigweed [4, 8]: 95; Plant response rating, Pigweed [4, 16]: 75; Plant response rating, Pigweed [4, 17]: 35; Plant response rating, Pigweed [4, 18]: 75; Plant response rating, Pigweed [4, 19]: 80; Plant response rating, Pigweed [4, 20]: 100
COc1nn(-c2ccc(C(F)(F)F)cc2)nc1Cn1ccc(C(F)(F)F)n1 [Compound 17, 4-methoxy-2-[4-(trifluoromethyl)phenyl]-5-[[3-(trifluoromethyl)-1H-pyrazol-1-yl]methyl]-2H-1,2,3-triazole] | – | – | – | – | – | – | – | – | – | – | – | – | – | – | – | – | – | – | – | – | pest or weed control at 62 g/ha [5, 21]: 20%; pest or weed control at 125 g/ha [5, 21]: 30%; pest or weed control at 250 g/ha [5, 21]: 75%; pest or weed control at 31 g/ha ([5]; Flood): 0%
CCCc1nn(-c2ccc(F)cc2)nc1Cc1ccnc(C(F)(F)F)c1 [Compound 153] | 60 | 65 | 85 | 85 | 80 | 100 | 100 | 40 | – | 60 | 90 | 90 | 90 | 95 | 98 | – | – | 98 | – | 60 | –
CCOc1nn(-c2ccc(Br)cc2)nc1Cc1ccnc(C(F)(F)F)c1 [Compound 189] | – | – | – | – | – | 95 | – | – | – | – | – | – | 85 | 85 | – | 35 | 80 | 80 | 50 | – | Plant response rating, Galium [1, 22]: 80; Plant response rating, Johnsongrass [2, 22]: 30
CCc1nn(-c2ccc(C(F)(F)F)cc2)nc1Oc1cccc(OC(F)(F)F)c1 [Compound 125, 4-ethyl-5-[3-(trifluoromethoxy)phenoxy]-2-[4-(trifluoromethyl)phenyl]-2H-1,2,3-triazole] | – | – | – | – | – | – | – | – | – | – | – | – | – | – | – | – | – | – | – | – | pest or weed control at 125 g/ha [5, 21]: 80%; pest or weed control at 250 g/ha [5, 21]: 85%; pest or weed control at 31 g/ha ([5]; Flood): 0%; pest or weed control at 62 g/ha ([5]; Flood): 40%
CCc1nn(-c2ccc(F)cc2)nc1Oc1ccnc(C(F)(F)F)c1 [Compound 166] | 50 | 50 | 60 | 80 | – | 90 | 100 | 10 | 15 | 20 | 20 | – | 30 | 75 | 100 | 80 | 10 | 10 | 10 | – | –
